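Dose response: 5 concentrations. Exposure: 48 h. Format: 96-well plates. Endpoint: linear interpolation; highest concentration if not reached. TGI denotes the concentration required for complete inhibition of growth.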
Tests used:
Experiment in all cases: NCI tumour cell line growth inhibition, 48 h
NCI-H522 lung = system: NCI-H522 lung
IGROV1 ovarian = system: IGROV1 ovarian
OVCAR-5 ovarian = system: OVCAR-5 ovarian
UO-31 renal = system: UO-31 renal
KM12 colon = system: KM12 colon
786-0 renal = system: 786-0 renal
RXF 393 renal = system: RXF 393 renal
EKVX NSCLC = system: EKVX NSCLC
SK-OV-3 ovarian = system: SK-OV-3 ovarian
M14 melanoma = system: M14 melanoma
UACC-257 melanoma = system: UACC-257 melanoma
SNB-19 CNS = system: SNB-19 CNS
OVCAR-3 ovarian = system: OVCAR-3 ovarian
BT-549 breast = system: BT-549 breast
TK-10 renal = system: TK-10 renal
SF-268 CNS = system: SF-268 CNS
HCC-2998 colon = system: HCC-2998 colon
SW-620 colon = system: SW-620 colon
MALME-3M melanoma = system: MALME-3M melanoma
CAKI-1 renal = system: CAKI-1 renal

| SMILES | TGI (NCI-H522 lung) [µM] | TGI (IGROV1 ovarian) [µM] | TGI (OVCAR-5 ovarian) [µM] | TGI (UO-31 renal) [µM] | TGI (KM12 colon) [µM] | TGI (786-0 renal) [µM] | TGI (RXF 393 renal) [µM] | TGI (EKVX NSCLC) [µM] | TGI (SK-OV-3 ovarian) [µM] | TGI (M14 melanoma) [µM] | TGI (UACC-257 melanoma) [µM] | TGI (SNB-19 CNS) [µM] | TGI (OVCAR-3 ovarian) [µM] | TGI (BT-549 breast) [µM] | TGI (TK-10 renal) [µM] | TGI (SF-268 CNS) [µM] | TGI (HCC-2998 colon) [µM] | TGI (SW-620 colon) [µM] | TGI (MALME-3M melanoma) [µM] | TGI (CAKI-1 renal) [µM] |
| --- | --- | --- | --- | --- | --- | --- | --- | --- | --- | --- | --- | --- | --- | --- | --- | --- | --- | --- | --- | --- |
| O[C@@H]1C[C@H]2N3CC[C@@]2(c2cc4c(cc2C3)OCO4)[C@H]2O[C@@H]12 | > 100 | > 100 | > 100 | > 100 | > 100 | > 100 | > 100 | > 100 | > 100 | > 100 | > 100 | > 100 | > 100 | > 100 | > 100 | > 100 | > 100 | > 100 | > 100 | > 100 |
| CCCCCCCCCCCCCCCCOCC(CCl)OP(=O)(O)OP(=O)(O)OCC1OC(n2ccc(N)nc2=O)C(O)C1O (stereo not given) | > 100 | > 100 | > 100 | > 100 | > 100 | > 100 | > 100 | > 100 | > 100 | > 100 | > 100 | > 100 | > 100 | > 100 | > 100 | > 100 | > 100 | > 100 | > 100 | > 100 |
| CN(C)CCCCN1c2ccccc2Sc2ccc(C(=O)c3ccccc3)cc21 | 6.84 | 7.89 | 13.8 | 10 | 4.99 | 4.83 | 4.17 | 15.9 | 27.2 | 3.25 | 3.76 | 12 | 9.88 | 18.8 | 8.42 | 17.7 | 3.97 | 2.91 | 3.33 | 5.32 |
| Cc1cc(-c2nc3ccc(F)cc3s2)ccc1N | > 100 | > 100 | > 100 | > 100 | > 100 | > 100 | > 100 | > 100 |  | > 100 | > 100 | > 100 | > 100 | > 100 | > 100 | > 100 | > 100 | > 100 | > 100 | > 100 |
| COCn1c(C)c(C)c2c(=O)oc(N(C)C)nc21 | > 100 | > 100 | > 100 | > 100 | > 100 | > 100 | > 100 | > 100 | > 100 | > 100 | > 100 | > 100 |  | > 100 | > 100 |  | > 100 | > 100 | > 100 | > 100 |
| c1ccc(C(=NNc2cnc3ccccc3n2)c2ccccn2)cc1 | 12.3 | 11.5 | 27.1 | 3.25 | 20.5 | 15.4 | 21.5 | 13.4 | > 44.6 | 10.9 | 17.5 | > 39.6 | 12.2 | 24.5 |  | 13.6 | 19.9 | 22.5 | 23 | 12.2 |
| COC(=O)/C=C(\S/C(=N\n1cc(C(=O)OC)c(C(=O)OC)c1-c1ccc(C)cc1)c1ccc(C)cc1)C(=O)OC | 3.7 | 44.5 | 14.5 | 8.48 | 41.9 | 9.69 | 13.9 | 32.8 | > 57.3 | 11 | 9.84 | > 61 | 12.4 | 21.3 | 8.42 | 40.4 | 34 | 5.53 | 13.9 |  |
| CC(=O)O[C@H]1C(=O)[C@@]2(C)[C@H]([C@H](OC(=O)c3ccccc3)[C@]3(O)C[C@H](OC(=O)[C@H](O)[C@@H](NC(=O)C(C)(C)C)c4ccccc4)C(C)=C1C3(C)C)[C@]1(OC(C)=O)CO[C@@H]1C[C@@H]2O | 0.105 | > 10 | > 8.6 |  | > 10 | > 5.47 | 2.64 | > 10 | 0.368 | > 4.71 | > 10 | > 10 |  | > 10 | > 10 | > 10 | 0.44 | > 10 | > 10 | > 10 |
| N#Cc1nc(C(CO)N(Cc2ccccc2)C(=O)O)oc1N (stereo not given) | > 100 | > 100 | > 100 | > 100 | > 100 | > 100 | > 100 | > 100 | > 100 | > 100 | > 100 |  | > 100 | > 100 | > 100 | > 100 | > 100 |  |  | > 100 |

— PubChem BioAssay (NCI)
